Key:
CT26 colon tumor = assay: CT26 syngeneic murine colon carcinoma model, tumor volume; type: in vivo, BALB/c mouse; settings: BBI608 100 mg/kg po qd
Description: All BALB/c mice (Taconic, Hudson, N.Y., USA) were housed in Association for Assessment and Accreditation of Laboratory Animal Care approved facilities in static microisolator cages. Murine MSS-status colon carcinoma CT26 cells (ATCC CRL-2639) and murine breast carcinoma cells 4T1 (ATCC CRL-2539) were purchased from American Type Culture Collection (ATCC, Manassas, Va., USA), and grown in RPMI-1640 medium (ATCC) supplemented with 10% heat-inactivated fetal calf serum. After harvesting during exponential growth, tumors were initiated by subcutaneously implanting 3×10^5 CT26 tumor cells into the right dorsal flank of each 8-12 week old female BALB/c mouse. […] Body weight and clinical signs were monitored throughout the course of the treatment in accordance with the Institutional Animal Care and Use Committee approved protocols. Drug efficacy was analyzed by measuring tumor volume in mm^3 calculated by multiplying 0.5×width^2×length. […]

[1] = tested on: β-CATENIN, NANOG, SMO, and SOX2; assay: Self-renewal gene expression in FaDu cancer stem cells; type: cell-based; design: dose or concentration left out as unconfirmed; settings: 24 hours
[2] = tested on: IL-6 and other STAT3 target genes; assay: STAT3 target gene expression in HeLa cells; type: cell-based
IL-6 = IL-6 level in colorectal cancer xenograft model (SW480); type: in vivo, mouse; settings: SW480 xenograft, 0, 1, 2, 4, 8, or 24 hours after treatment
Method: (§1) At the end of treatment, tumors were harvested from euthanized mice. Part of the dissected tumors were fixed overnight in 3.7% or 10% neutral buffered formaldehyde at 4° C., and then paraffin embedded, cut to 4-5 micron sections, and affixed onto positively charged slides. After baking and deparaffinization, the slides with tumor or control tissues were incubated in a 10 mM sodium citrate solution pH=6.0 for antigen retrieval at 98° C. Afterwards, slides were probed with primary antibodies against P-STAT3 (Tyr705) (rabbit, Cell Signaling, 1:100), β-CATENIN (mouse, Santa Cruz, 1:400), IL-6 (mouse, Novus Biol., 1:100), PD-L1 (rabbit, Cell Signaling, 1:100), PCNA (mouse, Santa Cruz, 1:5000), CD8a (rabbit, Santa Cruz, 1:30), CD44 (rat, BioLegend, 1:50), CD44 (mouse, Cell Signaling, 1:100), CD133 (mouse, Miltenyi, 1:100), IDO1 (mouse, Millipore 1:100), or/and CD3 (rabbit, Abcam, 1:100) at 4° C. overnight, and then AlexaFluor fluorescent dye-conjugated secondary antibodies (Invitrogen, 1:300 or 1:500) at room temperature for one hour. After mounting in ProLong mounting medium containing DAPI (Invitrogen), the slides were examined on a Zeiss Axio Imager M2 upright fluorescence microscope with a 20× objective and analyzed with Zen software.

CD44 = CD44 protein expression in ovarian cancer xenograft model (SKOV-3); type: in vivo, mouse; settings: SKOV-3 xenograft, 0, 1, 2, 4, 8, 16, or 24 hours after treatment
Method: as §1

IDO1 [3] = assay: IDO1 protein levels in SKOV3 cells; type: cell-based
IDO1 [4] = assay: IDO1 expression in colorectal cancer xenograft model (SW480); type: in vivo, mouse; settings: SW480 xenograft, 0, 1, 2, 4, 8, and 24 hours
Method: (§2) FIG. 13A and FIG. 13B show an exemplary reduction in IDO1 expression at 0, 1, 2, 4, 8, and 24 hours after treatment of SW480 xenograft colorectal cancer cells (FIG. 13A) and SKOV3 xenograft ovarian cancer cells (FIG. 13B) with an exemplary cancer sternness inhibitor, e.g., BBI608, according to certain embodiments of the present disclosure.
(§3) At the end of treatment, tumors were harvested from euthanized mice. Part of the dissected tumors were fixed overnight in 3.7% or 10% neutral buffered formaldehyde at 4° C., and then paraffin embedded, cut to 4-5 micron sections, and affixed onto positively charged slides. After baking and deparaffinization, the slides with tumor or control tissues were incubated in a 10 mM sodium citrate solution pH=6.0 for antigen retrieval at 98° C. […] After mounting in ProLong mounting medium containing DAPI (Invitrogen), the slides were examined on a Zeiss Axio Imager M2 upright fluorescence microscope with a 20× objective and analyzed with Zen software.

IDO1 [5] = assay: IDO1 expression in ovarian cancer xenograft model (SKOV-3); type: in vivo, mouse; settings: SKOV-3 xenograft, 0, 1, 2, 4, 8, and 24 hours
Method: as §2, §3

PD-L1 [6] = assay: IFNγ-induced PD-L1 expression in CT26 cells (Western blotting); type: cell-based, mouse; settings: 100 ng/ml IFNγ, 24 hours, 1 μM BBI608
Method: 3×10^5 CT26 cells in 6-well plated were treated with 100 ng/ml IFNγ for 24 hours at the presence of control DMSO or 1 μM BBI608. Cells were washed twice with ice-cold PBS and lysed in lysis buffer [50 mM Hepes (pH 7.5), 1% Nonidet P-40, 150 mM NaCl, 1 mM EDTA, and 1× protease and phosphatase inhibitor mixture (EMD Millipore)]. Soluble protein (20 μg) was separated by SDS/PAGE and transferred to nitrocellulose membranes. Primary antibodies against P-STAT3 (Y705), PD-L1, and ACTIN (Sigma) were used in this study. The antigen-antibody complexes were visualized by enhanced chemiluminescence (BioRad).

PD-L1 [7] = assay: PD-L1 staining of B16F10 melanoma cells in a murine xenograft model; settings: in vivo
CD8^+ T cells = assay: Tumor infiltrating CD8+ T cells in Apc^Min/+ mouse model of colon cancer (immunofluorescence); type: in vivo, Apc^Min/+ C57BL/6J mice; settings: BBI608 200 mg/kg p.o. q.d. 4 days, vs control group
Method: as §3
All animals were housed in Association for Assessment and Accreditation of Laboratory Animal Care-approved facilities in static microisolator cages. […] Body weight and clinical signs were monitored throughout the course of the treatment. […]
CD8^+ levels were analyzed by immunofluorescence.

For CC(=O)c1cc2c(o1)C(=O)c1ccccc1C2=O [BBI608, 2-acetylnaphtho[2,3-b]furan-4,9-dione], the tumor growth inhibition (CT26 colon tumor; by the end of treatment (11 days)) was 76%, the “anti-tumor activity (tumor volume course)” value (CT26 colon tumor; anti-PD-1 antibody 10 mg/kg iv q4d, 11 days) was “lasting anti-tumor activity” and the “expression of self-renewal genes β-CATENIN, NANOG, SMO, and SOX2” value [1] was “decreased expression”. The “IL-6 and other STAT3 target genes expression” value [2] was “downregulated”, the IL-6 level (IL-6) was “reduced IL-6 level in a time-dependent manner” and the CD44 protein expression (CD44) was “inhibited CD44 protein expression in a time-dependent manner”. For the same molecule, the IDO1 protein levels (IDO1 [3]; 8 or 24 hours) was “reduced”, the IDO1 protein levels (IDO1 [3]; 3 hours) was “reduced” and the IDO1 expression level (IDO1 [4]) was “reduced IDO1 expression level in a time-dependent manner”. The IDO1 expression level (IDO1 [5]) was “reduced the IDO1 expression level in a time-dependent manner”, the “IFNγ-induced PD-L1 expression” value (PD-L1 [6]) was “reduced” and the PD-L1 expression staining (PD-L1 [7]) was “down-regulation”. The “number of tumor infiltrating CD8^+ T cells” value (CD8^+ T cells) was “increased the number of tumor infiltrating CD8^+ T cells significantly”.
